Data: US10780090B2, “Heteroaryl compounds useful as inhibitors of SUMO activating enzyme” (Millennium Pharmaceuticals, Inc., priority 2014, dated 2020)
Where two headings read alike, the source gives them in different places.

Biological target: recombinant human SAE enzyme (Homo sapiens (Human), UniProt Q9UBT2)
Experiment: SAE HTRF enzyme assay
Type: biochemical
Settings: for inhibition at 0.111 µM: read-out: Percent Inhibition
How it was run: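 Sumoylation of Ubc9-GST by SAE was followed at low ATP (0.5 μM), pH 7.5, 24° C. for 105 min. Product was detected by HTRF with antibody pairs against Flag and GST tags.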

[1] = SAE inhibition at compound concentration 0.111 μM
[2] = SAE inhibition, class symbols, legend in nM

Sequence of recombinant human SAE enzyme (Q9UBT2 whole entry): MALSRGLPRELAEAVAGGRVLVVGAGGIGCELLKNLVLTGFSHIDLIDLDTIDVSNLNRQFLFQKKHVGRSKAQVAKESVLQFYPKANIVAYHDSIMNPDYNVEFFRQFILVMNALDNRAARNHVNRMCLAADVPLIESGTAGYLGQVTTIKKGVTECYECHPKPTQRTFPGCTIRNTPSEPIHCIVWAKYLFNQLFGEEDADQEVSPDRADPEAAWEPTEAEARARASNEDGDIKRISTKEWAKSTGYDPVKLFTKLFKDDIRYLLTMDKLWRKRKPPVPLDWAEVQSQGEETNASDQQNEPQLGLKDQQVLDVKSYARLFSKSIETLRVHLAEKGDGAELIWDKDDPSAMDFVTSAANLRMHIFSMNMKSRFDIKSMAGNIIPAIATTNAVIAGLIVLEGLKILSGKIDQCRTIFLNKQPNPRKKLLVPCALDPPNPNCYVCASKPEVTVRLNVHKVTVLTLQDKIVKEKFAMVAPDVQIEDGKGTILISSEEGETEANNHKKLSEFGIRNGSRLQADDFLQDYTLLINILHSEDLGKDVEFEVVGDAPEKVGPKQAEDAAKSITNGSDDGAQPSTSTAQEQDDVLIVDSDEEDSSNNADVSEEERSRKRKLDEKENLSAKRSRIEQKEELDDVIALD
Sequence of recombinant human SAE enzyme (Q9UBE0 whole entry partner): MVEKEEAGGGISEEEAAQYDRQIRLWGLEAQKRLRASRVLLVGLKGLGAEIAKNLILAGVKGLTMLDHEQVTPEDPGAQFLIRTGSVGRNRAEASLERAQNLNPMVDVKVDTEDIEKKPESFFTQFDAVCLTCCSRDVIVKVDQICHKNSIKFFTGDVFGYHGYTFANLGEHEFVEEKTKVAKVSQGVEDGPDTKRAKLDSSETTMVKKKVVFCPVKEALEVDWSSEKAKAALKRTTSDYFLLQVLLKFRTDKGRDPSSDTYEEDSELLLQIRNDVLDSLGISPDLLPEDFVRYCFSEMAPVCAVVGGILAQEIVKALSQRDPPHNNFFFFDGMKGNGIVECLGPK

SMILES	inhibition at 0.111 µM (Concentration 0.111 μM)	IC50 (class symbols A/B/C)	further results
NS(=O)(=O)OC[C@H]1C[C@@H](Nc2ncncc2C(=O)c2ccc(Cc3ccccc3)o2)[C@H](O)[C@@H]1O [I-87, [(1R,2R,3S,4R)-4-{[5-(5-benzyl-2-furoyl)pyrimidin-4-yl]amino}-2,3-dihydroxycyclopentyl]methyl sulfamate]	94%		
CC(=O)c1coc(C(=O)c2cncnc2N[C@@H]2C[C@H](COS(N)(=O)=O)[C@@H](O)C2)c1 [I-234, [(1R,2S,4R)-4-{[5-(4-Acetyl-2-furoyl)pyrimidin-4-yl]amino}-2-hydroxycyclopentyl]methyl sulfamate]	20%	100 to 1000 nM	
CC(C)c1ccccc1OCc1csc(C(=O)c2cncnc2N[C@@H]2C[C@H](COS(N)(=O)=O)[C@@H](O)C2)c1 [I-191, [(1R,2S,4R)-2-hydroxy-4-{[5-({4-[(2-isopropylphenoxy)methyl]-2-thienyl}carbonyl)pyrimidin-4-yl]amino}cyclopentyl]methyl sulfamate]	72%	10 to 100 nM	
Cc1sc(C(=O)c2cncnc2N[C@@H]2C[C@H](COS(N)(=O)=O)[C@@H](O)C2)cc1Cc1cccc(Br)c1 [I-52, {(1R,2S,4R)-4-[(5-{[4-(3-bromobenzyl)-5-methyl-2-thienyl]carbonyl}pyrimidin-4-yl)amino]-2-hydroxycyclopentyl}methyl sulfamate]	99%	< 10 nM	
Cc1oc(C(=O)c2cncnc2N[C@@H]2C[C@H](COS(N)(=O)=O)[C@@H](O)[C@@H]2F)cc1Cc1cccc(Cl)c1 [I-75, [(1R,2R,3R,4R)-4-({5-[4-(3-chlorobenzyl)-5-methyl-2-furoyl]pyrimidin-4-yl}amino)-3-fluoro-2-hydroxycyclopentyl]methyl sulfamate]	98%	< 10 nM	
NS(=O)(=O)OC[C@H]1C[C@@H](Nc2ncncc2C(=O)c2cc([C@H](O)c3ccccc3)c(Cl)s2)C[C@@H]1O (mixture of isomers) [I-56, [(1R,2S,4R)-4-{[5-({5-chloro-4-[(R)-hydroxy(phenyl)methyl]-2-thienyl}carbonyl)pyrimidin-4-yl]amino}-2-hydroxycyclopentyl]methyl sulfamate and [(1R,2S,4R)-4-{[5-({5-chloro-4-[(S)-hydroxy(phenyl)methyl]-2-thienyl}carbonyl)pyrimidin-4-yl]amino}-2-hydroxycyclopentyl]methyl sulfamate]		< 10 nM	Percent Inhibition (Concentration 0.111 μM): 98
Cc1sc(C(=O)c2cncnc2N[C@@H]2C[C@H](COS(N)(=O)=O)[C@@H](O)C2)cc1-c1nccc2ccc(Cl)cc12 [I-358, [(1R,2S,4R)-4-[[5-[4-(7-chloro-1-isoquinolyl)-5-methyl-thiophene-2-carbonyl]pyrimidin-4-yl]amino]-2-hydroxy-cyclopentyl]methyl sulfamate]			inhibition at 0.111 µM [1]: 96%; IC50 [2]: < 10 nM
N[C@@H](c1cccc(Br)n1)c1cc(C(=O)c2cncnc2N[C@@H]2C[C@H](COS(N)(=O)=O)[C@@H](O)[C@H]2O)sc1Cl (single isomer, unassigned) [I-10a, [(1R,2R,3S,4R)-4-{[5-({4-[(R)-amino(6-bromopyridin-2-yl)methyl]-5-chloro-2-thienyl}carbonyl)pyrimidin-4-yl]amino}-2,3-dihydroxycyclopentyl]methyl sulfamate or [(1R,2R,3S,4R)-4-{[5-({4-[(S)-amino(6-bromopyridin-2-yl)methyl]-5-chloro-2-thienyl}carbonyl)pyrimidin-4-yl]amino}-2,3-dihydroxycyclopentyl]methyl sulfamate]		< 10 nM	Percent Inhibition (Concentration 0.111 μM): 100
N#Cc1cccc(Cc2csc(C(=O)c3cncnc3N[C@@H]3C[C@H](COS(N)(=O)=O)[C@@H](O)C3)c2)c1 [I-185, {(1R,2S,4R)-4-[(5-{[4-(3-cyanobenzyl)-2-thienyl]carbonyl}pyrimidin-4-yl)amino]-2-hydroxycyclopentyl}methyl sulfamate]	80%	10 to 100 nM	
Cc1oc(C(=O)c2cncnc2N[C@@H]2C[C@H](COS(N)(=O)=O)[C@@H](O)C2)cc1Cc1cccc(Br)c1 [I-34, [(1R,2S,4R)-4-({5-[4-(3-bromobenzyl)-5-methyl-2-furoyl]pyrimidin-4-yl}amino)-2-hydroxycyclopentyl]methyl sulfamate]	99%	< 10 nM	
COc1ccccc1CCc1csc(C(=O)c2cncnc2N[C@@H]2C[C@H](COS(N)(=O)=O)[C@@H](O)C2)c1 [I-183, [(1R,2S,4R)-2-Hydroxy-4-{[5-({4-[2-(2-methoxyphenyl)ethyl]-2-thienyl}carbonyl)pyrimidin-4-yl]amino}cyclopentyl]methyl sulfamate]	82%	10 to 100 nM	
Cc1cn2c(n1)[C@H](c1cc(C(=O)c3cncnc3N[C@@H]3C[C@H](COS(N)(=O)=O)[C@@H](O)C3)sc1C)OCC2 (mixture of isomers) [I-309, [(1R,2S,4R)-2-hydroxy-4-{[5-({5-methyl-4-[(8S)-2-methyl-5,6-dihydro-8H-imidazo[2,1-c][1,4]oxazin-8-yl]-2-thienyl}carbonyl)pyrimidin-4-yl]amino}cyclopentyl]methyl sulfamate and [(1R,2S,4R)-2-hydroxy-4-{[5-({5-methyl-4-[(8R)-2-methyl-5,6-dihydro-8H-imidazo[2,1-c][1,4]oxazin-8-yl]-2-thienyl}carbonyl)pyrimidin-4-yl]amino}cyclopentyl]methyl sulfamate]			Percent Inhibition [1]: 98%; IC50 [2]: < 10 nM
NS(=O)(=O)OC[C@H]1C[C@@H](Nc2ncncc2C(=O)c2cc([C@@H]3OCC4(CC4)c4ccccc43)cs2)C[C@@H]1O (single isomer, unassigned) [I-281b, [(1R,2S,4R)-2-hydroxy-4-{[5-({4-[(1′R)-1′H-spiro[cyclopropane-1,4′-isochromen]-1′-yl]-2-thienyl}carbonyl)pyrimidin-4-yl]amino}cyclopentyl]methyl sulfamate or [(1R,2S,4R)-2-hydroxy-4-{[5-({4-[(1′S)-1′H-spiro[cyclopropane-1,4′-isochromen]-1′-yl]-2-thienyl}carbonyl)pyrimidin-4-yl]amino}cyclopentyl]methyl sulfamate]			Percent Inhibition [1]: 99%; IC50 [2]: < 10 nM
NS(=O)(=O)OC[C@H]1C[C@@H](Nc2ncncc2C(=O)c2cc(C3NCCc4ccc(Cl)cc43)c(Cl)s2)C[C@@H]1O (single isomer, unassigned) [I-255a, [(1R,2S,4R)-4-{[5-({5-chloro-4-[(1R)-7-chloro-1,2,3,4-tetrahydroisoquinolin-1-yl]-2-thienyl}carbonyl)pyrimidin-4-yl]amino}-2-hydroxycyclopentyl]methyl sulfamate or [(1R,2S,4R)-4-{[5-({5-chloro-4-[(1S)-7-chloro-1,2,3,4-tetrahydroisoquinolin-1-yl]-2-thienyl}carbonyl)pyrimidin-4-yl]amino}-2-hydroxycyclopentyl]methyl sulfamate]		10 to 100 nM	Percent Inhibition (Concentration 0.111 μM): 93
NS(=O)(=O)OC[C@H]1C[C@@H](Nc2ncncc2C(=O)c2cc([C@@H]3OCCCc4ccc(Cl)cc43)cs2)C[C@@H]1O (mixture of isomers) [I-314, [(1R,2S,4R)-4-{[5-({4-[(1R)-8-chloro-1,3,4,5-tetrahydro-2-benzoxepin-1-yl]-2-thienyl}carbonyl)pyrimidin-4-yl]amino}-2-hydroxycyclopentyl]methyl sulfamate and [(1R,2S,4R)-4-{[5-({4-[(1S)-8-chloro-1,3,4,5-tetrahydro-2-benzoxepin-1-yl]-2-thienyl}carbonyl)pyrimidin-4-yl]amino}-2-hydroxycyclopentyl]methyl sulfamate]			Percent Inhibition [1]: 95%; IC50 [2]: < 10 nM
N[C@@H](c1cccc(Cl)c1)c1cc(C(=O)c2cncnc2N[C@@H]2C[C@H](COS(N)(=O)=O)[C@@H](O)[C@H]2O)sc1Cl (single isomer, unassigned) [I-14a, [(1R,2R,3S,4R)-4-{[5-({4-[(S)-Amino(3-chlorophenyl)methyl]-5-chloro-2-thienyl)carbonyl)pyrimidin-4-yl]amino}-2,3-dihydroxycyclopentyl]methyl sulfamate or [(1R,2R,3S,4R)-4-{[5-({4-[(R)-Amino(3-chlorophenyl)methyl]-5-chloro-2-thienyl}carbonyl)pyrimidin-4-yl]amino}-2,3-dihydroxycyclopentyl]methyl sulfamate]		< 10 nM	Percent Inhibition (Concentration 0.111 μM): 101
Cc1sc(C(=O)c2cncnc2N[C@@H]2C[C@H](COS(N)(=O)=O)[C@@H](O)C2)nc1[C@H](O)c1cccc(Cl)c1 (single isomer, unassigned) [I-355b, [(1R,2S,4R)-4-{[5-({4-[(R)-(3-chlorophenyl)(hydroxy)methyl]-5-methyl-1,3-thiazol-2-yl}carbonyl)pyrimidin-4-yl]amino}-2-hydroxycyclopentyl]methyl sulfamate or [(1R,2S,4R)-4-{[5-({4-[(S)-(3-chlorophenyl)(hydroxy)methyl]-5-methyl-1,3-thiazol-2-yl}carbonyl)pyrimidin-4-yl]amino}-2-hydroxycyclopentyl]methyl sulfamate]			Percent Inhibition [1]: 71%; IC50 [2]: 10 to 100 nM
CCc1ccccc1OCc1csc(C(=O)c2cncnc2N[C@@H]2C[C@H](COS(N)(=O)=O)[C@@H](O)C2)c1 [I-182, [(1R,2S,4R)-4-{[5-({4-[(2-ethylphenoxy)methyl]-2-thienyl}carbonyl)pyrimidin-4-yl]amino}-2-hydroxycyclopentyl]methyl sulfamate]	82%	10 to 100 nM	
